From patent US10112958B2, “N-[2-(2-amino-6,6-disubstituted-4,4a,5,6-tetrahydropyrano[3,4-d][1,3]thiazin-8a(8H)-YL)-1,3-thiazol-4-YL] amides” (Pfizer Inc., priority 2015, dated 2018)

Target: T1, BACE1 enzyme (Homo sapiens, UniProt P56817)
T1 construct: transfected with a soluble BACE construct (BACE1deltaTM96His); His (C); made in house; host or cells: CHO-K1 cells (secreted into conditioned media)
Assay: BACE1 Cell-Free Assay (fluorescence polarization, cleavage of synthetic APP substrate)
Type: biochemical
Details: geometric mean of 2-4 determinations unless otherwise indicated (b: ≥5 determinations; c: single determination); 0.1 nM BACE1, 150 nM peptide substrate, pH 4.5, 3 hours at 37° C.
Source text: BACE1 Cell-Free Assay: Beta-secretase (BACE) is one of the enzymes involved in the generation of the amyloid beta peptide found in the amyloid plaques of Alzheimer's disease patients. This assay measures the inhibition of the beta-secretase enzyme as it cleaves a non-native peptide.
A synthetic APP substrate that can be cleaved by beta-secretase having N-terminal biotin and made fluorescent by the covalent attachment of Oregon Green at the Cys residue is used to assay beta-secretase activity in the presence or absence of the inhibitory compounds. The substrate is Biotin-GLTNIKTEEISEISY^EVEFR-C[Oregon Green]KK-OH. The BACE1 enzyme is affinity purified material from conditioned media of CHO-K1 cells that have been transfected with a soluble BACE construct (BACE1deltaTM96His). Compounds are incubated in a ½ log dose response curve from a top concentration of 100 μM with BACE1 enzyme and the biotinylated fluorescent peptide in 384-well black plates (Thermo Scientific #4318). BACE1 is at a final concentration of 0.1 nM with a final concentration of peptide substrate of 150 nM in a reaction volume of 30 μL assay buffer [100 mM sodium acetate, pH 4.5 (brought to pH with acetic acid), and 0.001% Tween-20]. Plates are covered and incubated for 3 hours at 37° C. The reaction is stopped with the addition of 30 μL of 1.5 μM Streptavidin (Pierce, #21125). After a 10 minute incubation at room temperature, plates are read on a PerkinElmer EnVision for fluorescence polarization (Ex485 nm/Em530 nm). The activity of the beta-secretase enzyme is detected by changes in the fluorescence polarization that occur when the substrate is cleaved by the enzyme.

T1 sequence (P56817 46-457 limits assumed): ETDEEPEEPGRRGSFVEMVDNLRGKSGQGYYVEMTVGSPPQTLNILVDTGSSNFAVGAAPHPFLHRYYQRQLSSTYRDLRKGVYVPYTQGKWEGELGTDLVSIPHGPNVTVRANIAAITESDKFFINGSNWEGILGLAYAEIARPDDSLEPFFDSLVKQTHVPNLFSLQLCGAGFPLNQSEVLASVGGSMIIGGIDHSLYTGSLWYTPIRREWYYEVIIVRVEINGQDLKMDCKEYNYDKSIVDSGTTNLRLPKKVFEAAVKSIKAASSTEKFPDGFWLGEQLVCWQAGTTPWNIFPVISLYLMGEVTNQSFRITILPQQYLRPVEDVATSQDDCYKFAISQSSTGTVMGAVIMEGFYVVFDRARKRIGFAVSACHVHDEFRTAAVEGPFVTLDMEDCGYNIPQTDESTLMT

Compound	IC50 [nM]
CC[C@@]1(C)C[C@@H]2CSC(N)=N[C@]2(c2nc(NC(=O)c3ccc(OC(F)F)cn3)cs2)CO1 [Example 26, N-{2-[(4aS,6S,8aS)-2-amino-6-ethyl-6-methyl-4,4a,5,6-tetrahydropyrano[3,4-d][1,3]thiazin-8a(8H)-yl]-1,3-thiazol-4-yl}-5-(difluoromethoxy)pyridine-2-carboxamide]	406
CC1(C)C[C@@H]2CSC(N)=N[C@]2(c2nc(NC(=O)c3ccc(OC(F)F)cn3)cs2)CO1 (single isomer, unassigned) [Example 15]	22200
NC1=N[C@@]2(c3nc(NC(=O)c4ccc(OC(F)F)cn4)cs3)COC3(CC3)C[C@H]2CS1 (single isomer, unassigned) [Example 39, N-{2-[(4a′R,8a′R)-2′-amino-4a′,5′-dihydro-4′H-spiro[cyclopropane-1,6′-pyrano[3,4-d] [1,3]thiazin]-8a′(8′H)-yl]-1,3-thiazol-4-yl}-5-(difluoromethoxy)pyridine-2-carboxamide]	314
CC(F)(F)Oc1ccc(C(=O)Nc2csc([C@]34COC(C)(C)C[C@H]3CSC(N)=N4)n2)nc1 (single isomer, unassigned) [Example 17]	416
NC1=N[C@@]2(c3nc(NC(=O)c4ccc(F)cn4)cs3)COC3(CCC3)C[C@H]2CS1 [Example 41, N-{2-[(4a′R,8a′R)-2′-amino-4a′,5′-dihydro-4′H-spiro[cyclobutane-1,6′-pyrano[3,4-d] [1,3]thiazin]-8a′(8′H)-yl]-1,3-thiazol-4-yl}-5-fluoropyridine-2-carboxamide]	714
COC(C)(C)C(=O)Nc1csc([C@]23COC(C)(C)C[C@H]2CSC(N)=N3)n1 [Example 32, N-{2-[(4aR,8aR)-2-amino-6,6-dimethyl-4,4a,5,6-tetrahydropyrano[3,4-d][1,3]thiazin-8a(8H)-yl]-1,3-thiazol-4-yl}-2-methoxy-2-methylpropanamide]	1690
NC1=N[C@]2(c3nc(NC(=O)c4ccc(OC(F)F)cn4)cs3)COC3(CC3)C[C@@H]2CS1 (single isomer, unassigned) [Example 38, N-{2-[(4a′S,8a′S)-2′-amino-4a′,5′-dihydro-4′H-spiro[cyclopropane-1,6′-pyrano[3,4-d][1,3]thiazin]-8a′(8′H)-yl]-1,3-thiazol-4-yl}-5-(difluoromethoxy)pyridine-2-carboxamide]	34500
NC1=N[C@@]2(c3nc(NC(=O)c4ccc(OC(F)F)cn4)cs3)COC3(CCC3)C[C@H]2CS1 (racemic) [Example 3, N-{2-[cis-2′-amino-4a′,5′-dihydro-4′H-spiro[cyclobutane-1,6′-pyrano[3,4-d][1,3]thiazin]-8a′(8′H)-yl]-1,3-thiazol-4-yl}-5-(difluoromethoxy)pyridine-2-carboxamide]	252

These reach a lower IC50. Values come first.

IC50 [nM]	Compound
194	C[C@@]1(CF)C[C@H]2CSC(N)=N[C@@]2(c2nc(NC(=O)c3ccc(OC(F)F)cn3)cs2)CO1 [Example 34, N-{2-[(4aR,6S,8aR)-2-amino-6-(fluoromethyl)-6-methyl-4,4a,5,6-tetrahydropyrano[3,4-d][1,3]thiazin-8a(8H)-yl]-1,3-thiazol-4-yl}-5-(difluoromethoxy) pyridine-2-carboxamide]
177	CC[C@@]1(C)C[C@H]2CSC(N)=N[C@@]2(c2nc(NC(=O)C3C4CC3C4)cs2)CO1 (stereo partly drawn) [Example 37, N-{2-[(4aR,6S,8aR)-2-amino-6-ethyl-6-methyl-4,4a,5,6-tetrahydropyrano[3,4-d][1,3]thiazin-8a(8H)-yl]-1,3-thiazol-4-yl}bicyclo[1.1.1]pentane-2-carboxamide]
60	CC[C@@]1(C)C[C@H]2CSC(N)=N[C@@]2(c2nc(NC(=O)c3ncc(OC(F)F)cc3C)cs2)CO1 [Example 36, N-{2-[(4aR,6S,8aR)-2-amino-6-ethyl-6-methyl-4,4a,5,6-tetrahydropyrano[3,4-d][1,3]thiazin-8a(8H)-yl]-1,3-thiazol-4-yl}-5-(difluoromethoxy)-3-methylpyridine-2-carboxamide]
17	CC1(C)C[C@H]2CSC(N)=N[C@@]2(c2nc(NC(=O)c3coc(CF)n3)cs2)CO1 (single isomer, unassigned) [Example 23]
